Reference: patent publication US20020091158A1, “Composition for and method of treatment using triterpenoids” (priority 1999, published 2002)
Like-named read-outs stand apart in the source and are kept apart here.

Key:
BJAB cells = assay: Effect on BJAB cells growth curve (KSHV negative control cells); type: cell-based, human; details: six days, 2 mM and 4 mM in alcohol 0.5% and 1%
Procedure: (§1) The Glycyrrhizic acid (as ammonium salt supplied by Sigma) is dissolved in 25% of ethanol at 100 mM and adjusted to pH 6.8 with 1 N sodium hydroxide. The maximum inhibition activity with no effect on cell cycle is achieved with 4 mM, the dose-dependent range is within 2mM to 5mM.
(§2) BJA-B is an Epstein-Barr virus (EBV)-negative lymphoblastoid cell line established from an African Burkift's lymphoma, KSHV negative cell line. See Menezes J, et al, Establishment and characterization of an Epstein-Barr virus (EBV)-negative lymphoblastoid B cell line (BJA-B) from an exceptional, EBV-genome-negative African Burkitt's lymphoma. Biomedicine 1975 Jul; 22 (4): 276-84. These cells are used as controls. Cells are cultured at concentration of 4×10^5/ml in RPMI with 20% of fetal calf serum in the presence or absence of different drug concentrations.
Cells are treated for six days with alcohol 0.5% and 1%, Glycyrrhizic acid 2 mM and 4 mM in alcohol 0.5% and 1% respectively. Glycyrrhizic acid has no effect on the cells proliferation.

BC-3 cells = assay: Effect on BC-3 cells growth curve (latently KSHV-infected); type: cell-based, human
Procedure: as §1
BC-3 is a cell line established from a HIV negative patient with a primary effusion lymphoma. See Arvanitakis L, et al Establishment and characterization of a primary effusion (body cavity-based) lymphoma cell line (BC-3) harboring Kaposi's sarcoma-associated herpesvirus (KSHV/HHV-8) in the absence of Epstein-Barr virus. Blood 88:2648-2654, 1996. The cells are latently KSHV-infected, but lacks EBV, and can be induced to enter lytic replication and viral production by treatment with TPA or with butyrate. BC-3 has an intact KSHV genome and is suitable for the isolation and study of KSHV.
as §2
The cells are treated for six days with alcohol 0.5% and 1%, Glycyrrhizic acid 2 mM and 4 mM in alcohol 0.5% and 1% respectively. Cells growth is 50% inhibited by Glycyrrhizic acid 2 mM, while treatment with Glycyrrhizic acid 4 mM determines cell death.

BC-1 cells = assay: Effect on BC-1 cells growth curve (KSHV/EBV-infected); type: cell-based, human; details: 6 days
Procedure: as §1
(§3) BC-1 and BC-2 are cell lines established from two different HIV positive patients with non-Hodgkins lymphoma, specifically body cavity-based lymphomas. The cells are KSHV/EBV-infected and can be induced to enter lytic replication and viral production by treatment with TPA or with butyrate. These cells have an intact KSHV and EBV genomes and are ideal for KSHV and EBV isolation and study.(Cesarman, E. et al., Blood 1995 Oct.;86(7):2708-14.
(§4) The cells are treated for six days with alcohol 1%, glycyrrhizic acid 2 mM […], glycyrrhizic acid 3 mM and 4 mM in alcohol 0.5%, 0.75% and 1% respectively. After 6 days treatment cells growth decreased 50% using glycyrrhizic acid 2 mM and glycyrrhizic acid 3 mM. Cells growth decreased 80% using glycyrrhizic acid 4 mM.

BC-2 cells = assay: Effect on BC-2 cells growth curve (KSHV/EBV-infected); type: cell-based, human; details: 6 days
Procedure: as §1, §3, §4

[1] = tested on: KSHV cyclin, v-FLIP and LANA (orf 73) genes; assay: Northern blot of viral latent genes transcription in BC-3 cells; type: cell-based, Kaposi's sarcoma-associated herpesvirus (KSHV); details: for effect on the viral latent genes transcription: BC-3 cells, six days
Procedure: (§5) Total RNA was extracted using RNAzol B (Tel-Test Inc., Friendswood, Tex.) according to the manufacturer's instructions, and Poly A+RNA was selected with Poly A+ Tract kit (Promega, Madison, Wis.). To eliminate any contaminating DNA, the RNA samples were treated with 2 U RNAse free DNAse (Promega).
(§6) For Northern blot analysis, […] of each mRNA sample was electrophoresed in 1.5% formaldehyde agarose gel and then transferred to a Gene Screen nylon membrane (Du Pont, Boston, Mass.) overnight with 20×SSC. Filters were UV-cross-linked to fix the RNA and hybridized at 42° C. with probes obtained by PCR amplification of KSHV cyclin, v-FLIP and LANA (orf 73) genes (20) and labeled by ^32P random priming (Amersham Life Science, Buckinghamshire, England). Human β-actin probe was used as a quantitative control to measure the total mRNA. Membranes were washed twice at room temperature and twice at 65° C. then exposed.
(§7) On the left side are indicated the probes used. On the right side are indicated the size of the transcripts. All probes correspond to viral latent genes, except the human b actin which is used as a quantitative control to measure the transcription of total cellular mRNA.
(§8) Lane 6 is the positive control.

Human β-actin = assay: Northern blot of β-actin as control for total cellular mRNA transcription; type: cell-based
Procedure: as §5, §6, §7, §8

KSHV latent antigens = assay: Immunofluorescence assay of BC-3 cells for latent KSHV antigens; type: cell-based, Kaposi's sarcoma-associated herpesvirus (KSHV); details: 4 mM, stained with KS patient serum (panel C)
Procedure: Secondary antibody FITC-conjugated F(ab′)2 fragment of rabbit antihuman IgG (DAKO, Carpinteria, Calif.) diluted 1:40 in MB was applied. Cell nuclei were counterstained for 5 min, in PBS containing 17 μM Dapi (4′-6′-diamino-2′-phenyidole dihydrochloride [Boehringer Mannheim Corp., Indianapolis, Ind.]), rinsed in TBST, mounted with Vectashield (Vector Lab. Inc., Burlingame, Calif.) and examined in a fluorescence microscope Axioplan2 (Zeiss, Germany). BC-3 cells were run in parallel as controls.
In panel C the BC-3 cells have been treated with glycyrrhizic acid 4 mM and stained with KS patient serum. In panel D BC-3 cells have been treated with glycyrrhizic acid 4 mM and stained with Dapi to localize the nuclei. Kaposi's Sarcoma patient serum is used primary antibody to stain the KSHV latent antigens.

[2] = cited from earlier work

Structure (SMILES)	effect on the cells proliferation (BJAB cells)	effect on cells growth (BC-3 cells; BC-3 cells, six days, 4 mM)	inhibition at 2000 µM (BC-3 cells; Homo sapiens, 144 h, BC-3 cells, six days, 2 mM, read-out: cells growth inhibited) [%]	KSHV infected cells killed (BC-3 cells; six days after treatment)	cells growth decreased (BC-1 cells; 2 mM) [%]	cells growth decreased (BC-1 cells; 3 mM) [%]	cells growth decreased (BC-1 cells; 4 mM) [%]	cells growth decreased (BC-2 cells; 2 mM) [%]	cells growth decreased (BC-2 cells; 3 mM) [%]	cells growth decreased (BC-2 cells; 4 mM) [%]	concentration of maximum inhibition activity with no effect on cell cycle [1] [mM]	effect on the viral latent genes transcription ([1]; 2 mM (lane 7))	effect on the viral latent genes transcription ([1]; 4 mM (lane 8))	transcription of total cellular mRNA (b actin) (Human β-actin; BJA-B cells, six days, 2 mM and 4 mM (lanes 1-5))	effect on cellular mRNA (β actin) (Human β-actin; all samples, BJA-B and BC-3)	expression of latent viral antigens (KSHV latent antigens)	solubility ([2]; hot water and alcohol)	solubility ([2]; ammonia water, ethanol, glacial acetic acid)
CC1(C)[C@@H](O[C@H]2O[C@H](C(=O)O)[C@@H](O)[C@H](O)[C@H]2O[C@@H]2O[C@H](C(=O)O)[C@@H](O)[C@H](O)[C@H]2O)CC[C@]2(C)[C@H]3C(=O)C=C4[C@@H]5C[C@@](C)(C(=O)O)CC[C@]5(C)CC[C@@]4(C)[C@]3(C)CC[C@@H]12 [Glycyrrhizic acid]	no effect	cell death	50	completely killed	50	50	80	50	50	80	4	does not show any effect	almost totally inhibited	not inhibited	does not have any effect	inhibits the expression of latent viral antigens	freely soluble	
CC1(C(=O)O)CCC2(C)CCC3(C)C(=CC(=O)C4C5(C)CCC(OC6OC(C(=O)O)C(O)C(O)C6OC6OC(C(=O)O)C(O)C(O)C6O)C(C)(C)C5CCC43C)C2C1.N.O.O.O.O.O (stereo not drawn) [Ammonium glycyrrhizinate pentahydrate]																		soluble
